Literature values as cited in patent US11053249B2, “Proteasome inhibiting β-lactam prodrugs useful for the treatment of cancer and neurodegenerative disorders” (Vita Api, priority 2016, dated 2021).

Conditions: Hogan & Corey, 2005, 2007

experimental infrared C═O stretching frequency: 1756 cm⁻¹
Structure (SMILES): CC(C)C(O)[C@@]12NC(=O)[C@H](CCCl)[C@@H]1NC2=O (stereo partly drawn) [initial β-lactam]
